Where two headings read alike, the source gives them in different places.
How the values were obtained:
[1] = target: T1, μ-opioid receptor (Homo sapiens (Human), UniProt P35372); test: μ-opioid receptor radioligand ([3H]-diprenorphine) dose-displacement binding assay; details: binding affinity
Method: μ-Opioid Receptor Binding Assay Procedures: Radioligand dose-displacement binding assays for μ-opioid receptors used 0.3 nM [^3H]-diprenorphine (Perkin Elmer, Shelton, Conn.), with […] membrane protein/well in a final volume of 500 μl binding buffer (10 mM MgCl2, 1 mM EDTA, 5% DMSO, 50 mM HEPES, pH 7.4). Reactions were carried out in the absence or presence of increasing concentrations of unlabeled naloxone. All reactions were conducted in 96-deep well polypropylene plates for 2 hours at room temperature. Binding reactions were terminated by rapid filtration onto 96-well Unifilter GF/C filter plates (Perkin Elmer, Shelton, Conn.), presoaked in 0.5% polyethylenimine using a 96-well tissue harvester (Perkin Elmer, Shelton, Conn.) followed by performing three filtration washes with 500 μl of ice-cold binding buffer. Filter plates were subsequently dried at 50° C. for 2-3 hours. BetaScint scintillation cocktail (Perkin Elmer, Shelton, Conn.) was added (50 μl/well), and plates were counted using a Packard Top-Count for 1 min/well. The data were analyzed using the one-site competition curve fitting functions in GraphPad PRISM™ v. 3.0 or higher (San Diego, Calif.), or an in-house function for one-site competition curve-fitting.
(§1) In TABLE 1, binding affinity of certain Compounds of the Invention to the μ-, δ- and κ-opioid receptors was determined as described above.

[2] = target: T2, κ opioid receptor (Homo sapiens (Human), UniProt P41145); test: κ-opioid receptor radioligand ([3H]-U69,593) dose-displacement binding assay; details: binding affinity
Method: κ-Opioid Receptor Binding Assay Procedures: Membranes from recombinantHEK-293 cells, CHO or U-2 OS cells expressing the recombinant human κ opioid receptor (κ) were prepared by lysing cells in ice cold hypotonic buffer (2.5 mM MgCl2, 50 mM HEPES, pH 7.4) (10 mL/10 cm dish) followed by homogenization with a tissue grinder/Teflon pestle. Membranes were collected by centrifugation at 30,000×g for 15 min at 4° C. and pellets were resuspended in hypotonic buffer to a final concentration of 1-3 mg/mL. Protein concentrations were determined using the BioRad protein assay reagent with bovine serum albumen as standard. Aliquots of κ receptor membranes were stored at −80° C.
Radioligand dose displacement assays used 0.4 nM [^3H]-U69,593 (GE Healthcare, Piscataway, N.J.; 40 Ci/mmole) with 15 μg membrane protein (recombinant κ opioid receptor expressed in HEK 293 cells; in-house prep) in a final volume of 200 μl binding buffer (5% DMSO, 50 mM Trizma base, pH 7.4). Non-specific binding was determined in the presence of 10 μM unlabeled naloxone or U69,593. All reactions were performed in 96-well polypropylene plates for 1 hour at a temperature of about 25° C. Binding reactions were terminated by rapid filtration onto 96-well Unifilter GF/C filter plates (Perkin Elmer, Shelton, Conn.) presoaked in 0.5% polyethylenimine (Sigma). Harvesting was performed using a 96-well tissue harvester (Perkin Elmer, Shelton, Conn.) followed by five filtration washes with 200 μl ice-cold binding buffer. Filter plates were subsequently dried at 50° C. for 1-2 hours. Fifty μl/well scintillation cocktail (Perkin Elmer, Shelton, Conn.) was added and plates were counted in a Packard Top-Count for 1 min/well.
as §1

[3] = target: T1, μ-opioid receptor; test: μ-opioid receptor [35S]GTPγS functional assay, HEK-293 or CHO cells; format: biochemical; details: for Emax: relative to DAMGO, HEK-293 or CHO cells
Method: μ-Opioid Receptor Functional Assay Procedures: [^35S]GTPγS functional assays were conducted using freshly thawed μ-receptor membranes prepared in-house from a cell line expressing recombinant μ opioid receptor in a HEK-293, CHO or U-2 OS cell background, or purchased from a commercial source (Perkin Elmer, Shelton, Conn.; or DiscovRx, Fremont, Calif.). Assay reactions were prepared by sequentially adding the following reagents to binding buffer (100 mM NaCl, 10 mM MgCl2, 20 mM HEPES, pH 7.4) on ice (final concentrations indicated): membrane protein (0.026 mg/mL), saponin ([…]), GDP ([…]) and [^35S]GTPγS (0.20 nM; Perkin Elmer, Shelton, Conn.). The prepared membrane solution (190 μl/well) was transferred to 96-shallow well polypropylene plates containing 10 μl of 20× concentrated stock solutions of the agonist [D-Ala^2, N-methyl-Phe^4 Gly-ol^5]-enkephalin (DAMGO) prepared in dimethyl sulfoxide (DMSO). Plates were incubated for 30 min at about 25° C. with shaking. Reactions were terminated by rapid filtration onto 96-well Unifilter GF/B filter plates (Perkin Elmer, Shelton, Conn.) using a 96-well tissue harvester (Perkin Elmer, Shelton, Conn.) followed by three filtration washes with 200 μl of ice-cold wash buffer (10 mM NaH2PO4, 10 mM Na2HPO4, pH 7.4). Filter plates were subsequently dried at 50° C. for 2-3 hours. BetaScint scintillation cocktail (Perkin Elmer, Shelton, Conn.) was added (50 μl/well) and plates were counted using a Packard Top-Count for 1 min/well. Data were analyzed using the sigmoidal dose-response curve fitting functions in GraphPad PRISM v. 3.0, or an in-house function for non-linear, sigmoidal dose-response curve-fitting.
μ-Opioid Receptor Functional Data: μ GTP EC50 is the concentration of a compound providing 50% of the maximal response for the compound at a μ-opioid receptor.
μ GTP Emax (%) is the maximal effect elicited by a compound relative to the effect elicited by DAMGO, a standard μ agonist. Generally, the μ GTP Emax (%) value measures the efficacy of a compound to treat or prevent pain or other Conditions.
(§2) In TABLE 2, activity response of certain Compounds of the Invention to the μ-, δ- and κ-opioid receptors was determined as described above for functional assays using HEK-293 or CHO cells.

[4] = target: T2, κ opioid receptor; test: κ-opioid receptor [35S]GTPγS functional assay, HEK-293 or CHO cells; format: biochemical; details: for Emax: relative to U69,593, HEK-293 or CHO cells
Method: κ-Opioid Receptor Functional Assay Procedures: Functional [^35S]GTPγS binding assays were conducted as follows. κ opioid receptor membrane solution was prepared by sequentially adding final concentrations of 0.026 μg/μl κ membrane protein (in-house), 10 μg/mL saponin, 3 μM GDP and 0.20 nM [^35S]GTPγS to binding buffer (100 mM NaCl, 10 mM MgCl2, 20 mM HEPES, pH 7.4) on ice. The prepared membrane solution (190 μl/well) was transferred to 96-shallow well polypropylene plates containing 10 μl of 20× concentrated stock solutions of agonist prepared in DMSO. Plates were incubated for 30 min at a temperature of about 25° C. with shaking. Reactions were terminated by rapid filtration onto 96-well Unifilter GF/B filter plates (Perkin Elmer, Shelton, Conn.) using a 96-well tissue harvester (Packard) and followed by three filtration washes with 200 μl ice-cold binding buffer (10 mM NaH2PO4, 10 mM Na2HPO4, pH 7.4). Filter plates were subsequently dried at 50° C. for 2-3 hours. Fifty μl/well scintillation cocktail (Perkin Elmer, Shelton, Conn.) was added and plates were counted in a Packard Top-Count for 1 min/well.
κ-Opioid Receptor Functional Data: κ GTP EC50 is the concentration of a compound providing 50% of the maximal response for the compound at a κ receptor.
κ GTP Emax (%) is the maximal effect elicited by a compound relative to the effect elicited by U69,593.
as §2

[5] = target: T1, μ-opioid receptor; test: μ-opioid receptor [35S]GTPγS functional assay, U-2 OS cells; format: biochemical; details: for Emax: relative to DAMGO, U-2 OS cells
[6] = target: T2, κ opioid receptor; test: κ-opioid receptor [35S]GTPγS functional assay, U-2 OS cells; format: biochemical; details: for Emax: relative to U69,593, U-2 OS cells
[7] = read-out: Opioid Receptor Ki (nM) μ
[8] = read-out: Opioid Receptor Ki (nM) κ
[9] = bound given in μM, read-out: Opioid Receptor Ki κ

SMILES | Ki [1, 7] | Ki [2, 8] | EC50 [3] | Emax [3] | EC50 [4] | Emax [4] | EC50 [5] | Emax [5] | EC50 [6] | Emax [6] | Ki [2, 9] | Ki ([1]; bound given in μM, read-out: Opioid Receptor Ki μ)
CCN1C(=O)NC(=O)[C@@]12CC[C@@]1(O)[C@H]3Cc4ccc(O)cc4[C@@]1(CCN3CC1CC1)C2 [Compound 49, (4S,4b′R,8a′S,9′R)-11′-(cyclopropylmethyl)-3-ethyl-3′,8a′-dihydroxy-8′,8a′,9′,10′-tetrahydro-5′H,7′H-spiro[imidazolidine-4,6′-[9,4b](epiminoethano)phenantrene]-2,5-dione] | 2.28 ± 0.62 nM | 0.47 ± 0.026 nM | > 20000 nM | 1% | 6.63 ± 2.21 nM | 59.3 ± 4.06% | > 20000 nM | 2.5% | 1.82 ± 0.098 nM | 111 ± 3.51% |  | 
COc1ccc2c(c1)[C@]13CCN(CC4CC4)[C@H](C2)[C@]1(O)CC[C@@]1(C3)NC(=O)NC1=O [Compound 2, (4bR,4′S,8aS,9R)-11-(cyclopropylmethyl)-8a-hydroxy-3-methoxy-5,7,8,8a,9,10-hexahydrospiro[9,4b-(epiminoethano)phenanthrene-6,4′-imidazolidine]-2′,5′-dione] | 9050 ± 895 nM | 130 ± 22.7 nM | 1950 ± 37.7 nM | 31.3 ± 2.4% | 2500 ± 556 nM | 63 ± 1.53% |  |  |  |  |  | 
COc1ccc2c(c1)[C@]13CCN[C@H](C2)[C@]1(O)CC[C@@]1(C3)NC(=O)NC1=O [Compound 12, (4bR,4′S,8aS,9R)-8a-hydroxy-3-methoxy-5,7,8,8a,9,10-hexahydrospiro[9,4b-(epiminoethano)phenanthrene-6,4′-imidazolidine]-2′,5′-dione] | 14900 nM |  |  |  |  |  |  |  |  |  | > 20000 nM | 
COc1ccc2c(c1)[C@]13CCN(Cc4ccccc4)[C@H](C2)[C@]1(O)CC[C@@]1(C3)NC(=O)NC1=O [Compound 11, (4bR,4′S,8aS,9R)-11-benzyl-8a-hydroxy-3-methoxy-5,7,8,8a,9,10-hexahydrospiro[9,4b-(epiminoethano)phenanthrene-6,4′-imidazolidine]-2′,5′-dione] |  |  |  |  |  |  |  |  |  |  | > 20000 nM | > 20000 nM
O=C1NC(=O)[C@@]2(CC[C@H]3[C@H]4Cc5ccc(O)cc5[C@@]3(CCN4CC3CC3)C2)N1 [Compound 7, (4bS,4′S,8aR,9R)-11-(cyclopropylmethyl)-3-hydroxy-5,7,8,8a,9,10-hexahydrospiro[9,4b-(epiminoethano)phenanthrene-6,4′-imidazolidine]-2′,5′-dione] | 8.39 ± 2.72 nM | 0.23 ± 0.05 nM | 3.76 ± 0.41 nM | 37 ± 4.04% | 3.68 ± 0.99 nM | 86.3 ± 2.19% |  |  |  |  |  | 
CN1C(=O)NC(=O)[C@@]12CC[C@@]1(O)[C@H]3Cc4ccc(O)cc4[C@@]1(CCN3CC1CC1)C2 [Compound 63, (4S,4b′R,8a′S,9′R)-11′-(cyclopropylmethyl)-3′,8a′-dihydroxy-3-methyl-8′,8a′,9′,10′-tetrahydro-5′H,7′H-spiro[imidazolidine-4,6′-[9,4b](epiminoethano)phenantrene]-2,5-dione] | 0.86 ± 0.11 nM | 0.3 ± 0.041 nM | > 20000 nM | 1% | 3.53 ± 0.43 nM | 74.7 ± 1.45% | 0.97 ± 0.053 nM | 14.3 ± 0.67% | 0.69 ± 0.025 nM | 108% |  | 
